# In US7713994B2 (Wyeth LLC, priority 2005, dated 2010):
# Target: T1, cyclin D1/cdk 4 enzyme (Homo sapiens, UniProt P11802)
# T1 construct: made in house; host or cells: Sf9 insect cells, recombinant baculovirus
# Test: CDK4 ELISA kinase assay (phospho-Rb ser 795 detection)
# Type: biochemical
# Conditions: In Vitro Enzyme Assay, cyclin D1/cdk 4, read-out: CDK4 IC50
# Procedure: • 1. High-binding ELISA microtiter plates (Costar) were coated with 40 μl of the kinase substrate (GST fusion of C-terminal fragment of the retinoblastoma susceptibility gene product) diluted to 10 μg/ml in tris-buffered saline (TBS), overnight at 4° C. • 2. Non-specific binding sites were blocked for 1 hour at 4° C. with Superblock in TBS (Pierce), and the plates rinsed with water. • 3. For the screen, 1.5 μl of test compound (200 μg/ml stock in 20% DMSO/20 mM HEPES, pH 7.5) was added to each well. Final dose of the test compound in the assay was 10 ug/ml. […] The kinase reaction (30 μl) was dispensed into each well. Reactions contained 200 μM ATP, 0.5 mg/ml bovine serum albumin (BSA; Sigma), and 0.5 μl partially purified cyclin D1/cdk 4 enzyme*. The enzyme complex is expressed in insect cells (Sf9) infected with recombinant baculovirus and partially purified using ammonium sulfate fractionation. Reaction volumes were adjusted to 30 μl with kinase assay buffer (50 mM HEPES, pH 7.5, 10 mM MgCl2, 5% glycerol, 10 mM 2-mercaptoethanol). • *: For CDK2 assay, 1.0 μl cyclin E/CDK2 enzyme (diluted 1:1000 in kinase assay buffer) was used. The enzyme is isolated from insect cells (Sf9) infected with recombinant baculovirus and partially purified using ammonium sulfate fractionation. For CDK1 assay, 0.08 μl cyclin B/CDK1 enzyme [New England BioLabs; the enzyme is isolated from insect cells (Sf9) infected with recombinant baculovirus carrying human cdc 2 and human cyclin B] was used.
# […] • 5. Plates were incubated at 30° C. for 1 hour. • 6. The reaction mixture was removed by aspiration and replaced with 250 μl TBS containing 0.1% Tween-20 and 5% nonfat dry milk (blocking buffer). The plates were incubated at 4° C. for 1 hour. • 7. The blocking buffer was removed and replaced with 50 μl of the primary antibody [anti-phospho-Rb ser 795 (New England BioLabs) diluted 1:1000 in blocking buffer]. Incubation was at 4° C. for 16-20 hours. • 8. The wells were rinsed 3 times with 250 μl of TBS containing 0.1% Tween-20 followed by the addition of 50 μl of secondary antibody [anti-rabbit IgG conjugated to horseradish peroxidase (Amersham Life Science) diluted 1:1000 in blocking buffer]. • 9. After a 1 hour incubation at room temperature, the wells were rinsed 3 times with 250 μl of TBS/0.1% Tween 20. • 10. TMB (3,3′,5,5′-tetramethylbenzidine dihydrochloride) substrate solution (100 μl; Pierce) was added to each well and the color development reaction allowed to proceed 5-10 minutes at room temperature with shaking. The reaction was stopped by the addition of 2N sulfuric acid (100 μl) and the absorbance values read at 450 nm in a microplate reader (Molecular Devices). Analysis of Results: • 1. The percentage of the absorbance value in wells containing the test compound relative to control wells (no test agent) was determined. • 2. IC50 values of selected compounds were determined from inhibition curves, after subtracting background values (no substrate).
# T1 sequence (P11802 whole entry, species assumed): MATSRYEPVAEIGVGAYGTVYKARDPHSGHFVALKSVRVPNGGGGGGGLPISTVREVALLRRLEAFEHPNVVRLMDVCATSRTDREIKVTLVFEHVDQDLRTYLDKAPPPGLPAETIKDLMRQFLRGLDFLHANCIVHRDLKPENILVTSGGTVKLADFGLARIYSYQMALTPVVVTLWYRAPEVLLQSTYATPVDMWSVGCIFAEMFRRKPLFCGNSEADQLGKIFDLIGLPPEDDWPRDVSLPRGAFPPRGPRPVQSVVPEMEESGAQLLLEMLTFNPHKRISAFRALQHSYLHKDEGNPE
# T1 sequence (P24385 whole entry partner, species assumed): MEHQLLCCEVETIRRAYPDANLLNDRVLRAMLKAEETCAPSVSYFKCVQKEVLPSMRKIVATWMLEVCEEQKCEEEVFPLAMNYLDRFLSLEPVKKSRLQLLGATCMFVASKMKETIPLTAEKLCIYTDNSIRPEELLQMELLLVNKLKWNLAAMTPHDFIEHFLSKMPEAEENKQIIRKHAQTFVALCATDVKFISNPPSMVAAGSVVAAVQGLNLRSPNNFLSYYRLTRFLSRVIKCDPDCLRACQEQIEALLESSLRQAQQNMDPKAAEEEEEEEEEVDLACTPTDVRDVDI
row,Compound,IC50 [µM]
1,"O=C1NC(=O)c2ccccc2C1=CNc1ccc(N2CCN(CCO)CC2)cc1 [Example 598, 4-({4-[4-(2-Hydroxy-ethyl)-piperazin-1-yl]-phenylamino}-methylene)-4H-isoquinoline-1,3-dione]",33.1
2,"CCS(=O)(=O)NCc1ccc(N/C=C2\C(=O)NC(=O)c3ccccc32)cc1 [Example 613, Ethanesulfonic acid 4-[(1,3-dioxo-2,3-dihydro-1H-isoquinolin-4-ylidenemethyl)-amino]-benzylamide]",33.1
3,"CSc1ccc(-c2ccc3c(c2)C(=CNCc2ccc(S(N)(=O)=O)cc2)C(=O)NC3=O)cc1 [Example 763, 4-({[6-(4-Methylsulfanyl-phenyl)-1,3-dioxo-2,3-dihydro-1H-isoquinolin-4-ylidenemethyl]-amino}-methyl)-benzenesulfonamide]",49.6
4,"Cc1ccccc1-c1ccc2c(c1)C(=CNc1ccc(N3CCN(C)CC3)cc1)C(=O)NC2=O [Example 694, 4-{[4-(4-Methyl-piperazin-1-yl)-phenylamino]-methylene}-6-o-tolyl-4H-isoquinoline-1,3-dione]",32.3
5,"O=C1NC(=O)c2ccccc2C1=CNc1cccc(C(=O)O)c1 [Example 542, 3-[(1,3-Dioxo-2,3-dihydro-1H-isoquinolin-4-ylidenemethyl)-amino]-benzoic acid]",34.8
6,"O=C1NC(=O)c2ccccc2C1=CNCc1cccc(NCC(F)(F)F)c1 [Example 603, 4-{[3-(2,2,2-Trifluoro-ethylamino)-benzylamino]-methylene}-4H-isoquinoline-1,3-dione]",48.3
7,"O=C1NC(=O)c2ccccc2C1=CNCc1cccc(NC(=O)C2CC2)c1 [Example 586, Cyclopropanecarboxylic acid (3-{[(1,3-dioxo-2,3-dihydro-1H-isoquinolin-4-ylidenemethyl)-amino]-methyl}-phenyl)-amide]",31.3
8,CS(=O)(=O)Nc1ccc(CNC=C2C(=O)NC(=O)c3ccccc32)cc1 [Example 589],36.4
9,"O=C1NC(=O)c2ccccc2C1=CNc1cc(Cl)c([N+](=O)[O-])cc1O [Example 570, 4-[(5-Chloro-2-hydroxy-4-nitro-phenylamino)-methylene]-4H-isoquinoline-1,3-dione]",22
10,"O=C1NC(=O)c2ccccc2C1=CNc1c(O)cccc1O [Example 565, 4-[(2,6-Dihydroxy-phenylamino)-methylene]-4H-isoquinoline-1,3-dione]",38
11,"CN1CCN(c2ccc(NC=C3C(=O)NC(=O)c4ccc(-c5ccc6ccccc6c5)cc43)cc2)CC1 [Example 668, 4-{[4-(4-Methyl-piperazin-1-yl)-phenylamino]-methylene}-6-naphthalen-2-yl-4H-isoquinoline-1,3-dione]",21.9
12,"O=C1NC(=O)c2ccccc2C1=CNc1ccncc1 [Example 618, 4-(Pyridin-4-ylaminomethylene)-4H-isoquinoline-1,3-dione]",40.1
13,"O=C(O)CSc1ccc(NC=C2C(=O)NC(=O)c3ccccc32)cc1 [Example 548, {4-[(1,3-Dioxo-2,3-dihydro-1H-isoquinolin-4-ylidenemethyl)-amino]-phenylsulfanyl}-acetic acid]",35.3
14,"CC(=O)c1ccc(-c2ccc3c(c2)C(=CNc2ccc(CC#N)cc2)C(=O)NC3=O)cc1 [Example 710, (4-{[6-(4-Acetyl-phenyl)-1,3-dioxo-2,3-dihydro-1H-isoquinolin-4-ylidenemethyl]-amino}-phenyl)-acetonitrile]",28

# Continued, values first:
row,IC50 [µM],Compound
1,21.7,"N#CCc1ccc(NC=C2C(=O)NC(=O)c3ccc(-c4ccc(-c5ccccc5)cc4)cc32)cc1 [Example 720, {4-[(6-Biphenyl-4-yl-1,3-dioxo-2,3-dihydro-1H-isoquinolin-4-ylidenemethyl)-amino]-phenyl}-acetonitrile]"
2,16.6,"N#CCc1ccc(NC=C2C(=O)NC(=O)c3ccc(C=Cc4ccccc4)cc32)cc1 [Example 650, {4-[(1,3-Dioxo-6-styryl-2,3-dihydro-1H-isoquinolin-4-ylidenemethyl)-amino]-phenyl}-acetonitrile]"
3,4.99,"CC(C)c1cccc(-c2ccc3c(c2)C(=CNCc2ccc(O)c(O)c2)C(=O)NC3=O)c1 [Example 791, 4-[(3,4-Dihydroxy-benzylamino)-methylene]-6-(3-isopropyl-phenyl)-4H-isoquinoline-1,3-dione]"
4,17.3,"O=C1NC(=O)c2ccccc2C1=CNc1ccc(C(=O)O)c(O)c1 [Example 560, 4-[(1,3-Dioxo-2,3-dihydro-1H-isoquinolin-4-ylidenemethyl)-amino]-2-hydroxy-benzoic acid]"
5,2.27,"CN1CCN(c2ccc(NC=C3C(=O)NC(=O)c4ccc(C=CCCO)cc43)cc2)CC1 [Example 796, 6-(4-Hydroxy-but-1-enyl)-4-{[4-(4-methyl-piperazin-1-yl)-phenylamino]-methylene}-4H-isoquinoline-1,3-dione]"
6,3.8,"N#CCc1ccc(NC=C2C(=O)NC(=O)c3ccc(-c4ccc(C(=O)O)cc4)cc32)cc1 [Example 707, 4-{4-[(4-Cyanomethyl-phenylamino)-methylene]-1,3-dioxo-1,2,3,4-tetrahydro-isoquinolin-6-yl}-benzoic acid]"
7,19.7,"NS(=O)(=O)c1ccc(CNC=C2C(=O)NC(=O)c3ccccc32)cc1 [Example 540, 4-{[(1,3-Dioxo-2,3-dihydro-1H-isoquinolin-4-ylidenemethyl)-amino]-methyl}-benzenesulfonamide]"
8,15,"CC(C#N)=C(C)c1ccc2c(c1)C(=CNc1ccc(N3CCN(C)CC3)cc1)C(=O)NC2=O [Example 802, 2-Methyl-3-(4-{[4-(4-methyl-piperazin-1-yl)-phenylamino]-methylene}-1,3-dioxo-1,2,3,4-tetrahydro-isoquinolin-6-yl)-but-2-enenitrile]"
9,1.23,"Cc1ccccc1-c1ccc2c(c1)C(=CNCc1ccc(O)c(O)c1)C(=O)NC2=O [Example 783, 4-[(3,4-Dihydroxy-benzylamino)-methylene]-6-o-tolyl-4H-isoquinoline-1,3-dione]"
10,16.2,"O=C1NC(=O)c2ccccc2C1=CNCCc1ccc(O)c(O)c1 [Example 544, 4-{[2-(3,4-Dihydroxy-phenyl)-ethylamino]-methylene}-4H-isoquinoline-1,3-dione]"
11,12,"O=C1NC(=O)c2ccccc2C1=CNc1ccc(N2CCN(C3CCCC3)CC2)cc1 [Example 601, 4-{[4-(4-Cyclopentyl-piperazin-1-yl)-phenylamino]-methylene}-4H-isoquinoline-1,3-dione]"
12,16.9,"CN1CCN(c2ccc(NC=C3C(=O)NC(=O)c4ccc(C=Cc5ccc(Cl)cc5)cc43)cc2)CC1 [Example 726, 6-[2-(4-Chloro-phenyl)-vinyl]-4-{[4-(4-methyl-piperazin-1-yl)-phenylamino]-methylene}-4H-isoquinoline-1,3-dione]"
13,18.4,"CC(C)c1ccc(-c2ccc3c(c2)C(=CNCc2ccc(S(N)(=O)=O)cc2)C(=O)NC3=O)cc1 [Example 761, 4-({[6-(4-Isopropyl-phenyl)-1,3-dioxo-2,3-dihydro-1H-isoquinolin-4-ylidenemethyl]-amino}-methyl)-benzenesulfonamide]"
14,19.4,"O=C(O)C=Cc1ccc(NC=C2C(=O)NC(=O)c3ccccc32)cc1 [Example 557, 3-{4-[(1,3-Dioxo-2,3-dihydro-1H-isoquinolin-4-ylidenemethyl)-amino]-phenyl}-acrylic acid]"
15,1.45,"CC(C)c1ccc(-c2ccc3c(c2)C(=CNCc2ccc(O)c(O)c2)C(=O)NC3=O)cc1 [Example 790, 4-[(3,4-Dihydroxy-benzylamino)-methylene]-6-(4-isopropyl-phenyl)-4H-isoquinoline-1,3-dione]"
16,2.2,"NS(=O)(=O)c1ccc(CNC=C2C(=O)NC(=O)c3ccc(-c4cccc(C=CC(=O)O)c4)cc32)cc1 [Example 760, 3-(3-{1,3-Dioxo-4-[(4-sulfamoyl-benzylamino)-methylene]-1,2,3,4-tetrahydro-isoquinolin-6-yl}-phenyl)-acrylic acid]"
